# Data as given in patent publication US20110229580A1, “COMPOSITIONS AND METHODS FOR NANO-IN-MICRO PARTICLES” (Indian Institute of Technology Bombay, School of …, priority 2010, published 2011).
# Assay: Confocal laser scanning microscopy of dye retention in CaCO3 nanoparticles
# Format: physicochemical
# Conditions: CLSM
# From the text: Fluorescent images of FITC-dex (70 kDa) loaded CaCO3 nanoparticles were examined using confocal microscopy. Confocal micrographs of micro/nanoparticles were obtained with a flow view confocal laser scanning microscope (CLSM) equipped with a krypton-argon laser (Olympus FluoView™, Japan). An inverted microscope was also used which was equipped with an oil immersion objective lens (40×). The standard filter settings for fluorescence excitation (488 nm) and emission (520 nm) were used.
compound,measurement,value
O=C1OC2(c3ccc(O)cc3Oc3cc(O)ccc32)c2ccc(N=C=S)cc21 [FITC dye],retention in CaCO3 nanoparticles,not retained
